Assay results reported in patent publication US20240254103A9, “NOVEL PYRIMIDINE DERIVATIVE, AND COMPOSITION FOR PREVENTING OR TREATING NEURODEGENERATIVE DISEASES AND CANCER, COMPRISING SAME” (WHAN IN PHARMACEUTICAL CO., LTD., priority 2020, published 2024).

Molecular target: T1, wild-type LRRK2 (Homo sapiens, UniProt Q5S007)
T1 construct: DNA tag for qPCR detection (not a peptide; the protein part that carries it is not described); made in house; host or cells: HEK 293 cells (the same paragraph also describes T7 phage grown in E. coli BL21)
T1 sequence (Q5S007 970-2527): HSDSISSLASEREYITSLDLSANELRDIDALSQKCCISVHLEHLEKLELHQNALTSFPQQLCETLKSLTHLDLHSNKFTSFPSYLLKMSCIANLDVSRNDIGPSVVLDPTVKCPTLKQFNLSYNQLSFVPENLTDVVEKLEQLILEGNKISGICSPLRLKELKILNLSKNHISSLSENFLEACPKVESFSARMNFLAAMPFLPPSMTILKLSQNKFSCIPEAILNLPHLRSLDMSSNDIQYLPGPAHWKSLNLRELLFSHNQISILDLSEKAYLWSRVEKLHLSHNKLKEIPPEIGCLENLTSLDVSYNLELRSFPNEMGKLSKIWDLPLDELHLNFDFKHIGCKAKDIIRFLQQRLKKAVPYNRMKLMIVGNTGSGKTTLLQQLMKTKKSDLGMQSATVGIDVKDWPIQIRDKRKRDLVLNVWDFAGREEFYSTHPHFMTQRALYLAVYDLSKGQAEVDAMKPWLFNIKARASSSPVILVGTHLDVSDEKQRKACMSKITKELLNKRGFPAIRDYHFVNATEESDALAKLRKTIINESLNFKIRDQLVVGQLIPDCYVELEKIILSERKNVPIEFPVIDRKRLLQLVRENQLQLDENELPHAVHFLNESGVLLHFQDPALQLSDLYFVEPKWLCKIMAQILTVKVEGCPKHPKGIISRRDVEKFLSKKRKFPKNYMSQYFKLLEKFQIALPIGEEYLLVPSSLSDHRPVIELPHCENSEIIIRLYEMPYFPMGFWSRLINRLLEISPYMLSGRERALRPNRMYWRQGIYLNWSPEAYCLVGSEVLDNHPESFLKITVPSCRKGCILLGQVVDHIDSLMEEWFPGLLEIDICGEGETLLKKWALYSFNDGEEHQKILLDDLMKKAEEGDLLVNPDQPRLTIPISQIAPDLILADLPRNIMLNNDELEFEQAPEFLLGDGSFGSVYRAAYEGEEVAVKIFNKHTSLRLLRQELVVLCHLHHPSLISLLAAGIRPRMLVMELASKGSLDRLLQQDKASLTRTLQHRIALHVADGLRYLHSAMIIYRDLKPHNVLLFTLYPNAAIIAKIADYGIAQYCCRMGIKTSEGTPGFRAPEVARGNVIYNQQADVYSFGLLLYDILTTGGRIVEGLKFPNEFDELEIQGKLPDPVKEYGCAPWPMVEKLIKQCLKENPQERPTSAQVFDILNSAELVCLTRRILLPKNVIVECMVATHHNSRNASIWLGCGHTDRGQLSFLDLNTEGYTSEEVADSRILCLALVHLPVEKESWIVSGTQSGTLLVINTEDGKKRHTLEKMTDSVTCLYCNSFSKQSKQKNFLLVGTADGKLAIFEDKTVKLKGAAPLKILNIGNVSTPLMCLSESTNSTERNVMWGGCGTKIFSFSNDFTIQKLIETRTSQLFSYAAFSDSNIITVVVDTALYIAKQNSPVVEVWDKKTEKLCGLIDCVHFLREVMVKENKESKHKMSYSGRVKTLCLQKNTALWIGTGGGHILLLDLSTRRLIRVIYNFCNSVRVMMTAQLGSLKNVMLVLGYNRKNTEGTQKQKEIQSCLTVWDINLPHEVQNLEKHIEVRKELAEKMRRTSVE
Test: Inhibitory activity against LRRK2: competition binding to ligand-affinity beads, DNA-tagged kinase quantitated by qPCR
Details: % of ctrl; for remaining binding at 0.01 µM: 10 nM compound, read-out: LRRK2(WT) Remaining kinase activity(%) at 10 nM; for remaining binding at 0.05 µM: 50 nM compound, read-out: LRRK2(WT) Remaining kinase activity(%) at 50 nM
Method: Representative compounds synthesized in Example 1 were assayed for inhibitory activity against wild-type LRRK2 and mutant LRRK2 (G2019S), and the results are summarized in Tables 2 and 3. In brief, a T7 phase strain carrying the wild-type kinase consisting of amino acid residues from H970 to E2527 of human-derived LRRK2 (Accession no. NP_940980.3) or a T7 phase strain carrying the G2019S mutation kinase was infected into E. coli strain BL21 which was then grown until log phase. After infection with T7 phases (multiplicity of infection=0.4), the cells were cultured at 32° C. for 90-150 minutes while shaking. Then, E. coli lysates were centrifuged (6,000×g) and the supernatant was filtered through a 0.2-μm filter. The kinases were produced in HEK 293 cells. In this regard, DNA was tagged to obtain DNA-tagged kinases for qPCR detection. For use in analyzing the kinases, affinity resins were prepared by treating streptavidin-coated magnetic beads with biotinylated small molecule ligands at room temperature for 30 minutes. Then, the liganded beads were blocked with an excess of biotin and washed with a blocking buffer (SeaBlock (Pierce), 1% BSA, 0.05% Tween 20, 1 mM DTT) to remove unbound ligands and thus to reduce the binding of non-specific phages. […] After one hour of incubation, the affinity beads were washed with a wash buffer (1×PBS, 0.05% Tween 20), resuspended in an elution buffer (1×PBS, 0.05% Tween 20, 0.5 μM non-biotinylated affinity ligand), and incubated at room temperature for 30 minutes while shaking. Afterwards, concentrations of wild-type LRRK2 and mutant LRRK2 (G2019S) in the eluted samples were quantitated by qPCR. Activity values are expressed as percentages relative to the control (% of ctrl). The compounds used in the activity assay were prepared into 40× stocks in 100% DMSO. The stocks were directly diluted during analysis procedures.
Table 2 includes inhibitory activities of the representative compounds of the present disclosure at 100 nM against wild-type LRRK2 and mutant LRRK2 (G2019S) while Table 3 includes inhibitory activities of the representative compounds at 10 nM and 50 nM against wild-type LRRK2. (+++ less than 10%; ++ less than 30%; + less than 50%; −50% or higher)

remaining binding at 0.01 µM [%] | remaining binding at 0.05 µM [%] | SMILES
≥ 50 | < 30 | COCCNC(=O)c1ccc(Nc2ncc(Cl)c(-c3cnn(C(C)C)c3)n2)c(OC)c1 [Compound 140, 4-((5-chloro-4-(1-isopropyl-1H-pyrazol-4-yl)pyrimidin-2-yl)amino)-3-methoxy-N-(2-methoxyethyl)benzamide]
≥ 50 | < 30 | COc1cc(C(=O)N(C)CCO)ccc1Nc1ncc(Cl)c(-c2cnn(C(C)C)c2)n1 [Compound 141, 4-((5-chloro-4-(1-isopropyl-1H-pyrazol-4-yl)pyrimidin-2-yl)amino)-N-(2-hydroxyethyl)-3-methoxy-N-methylbenzamide]
≥ 50 | < 50 | COc1cc(C(=O)Nc2ccc(Cl)cc2)ccc1Nc1ncc(Cl)c(-c2cnn(C(C)C)c2)n1 [Compound 151, 4-((5-chloro-4-(1-isopropyl-1H-pyrazol-4-yl)pyrimidin-2-yl)amino)-N-(4-chlorophenyl)-3-methoxybenzamide]
≥ 50 | < 30 | COc1cc(C(=O)NCc2cccc(O)c2)ccc1Nc1ncc(Cl)c(-c2cnn(C(C)C)c2)n1 [Compound 152, 4-((5-chloro-4-(1-isopropyl-1H-pyrazol-4-yl)pyrimidin-2-yl)amino)-N-(3-hydroxybenzyl)-3-methoxybenzamide]
≥ 50 | < 30 | COc1ccccc1CNC(=O)c1ccc(Nc2ncc(Cl)c(-c3cnn(C(C)C)c3)n2)c(OC)c1 [Compound 154, 4-((5-chloro-4-(1-isopropyl-1H-pyrazol-4-yl)pyrimidin-2-yl)amino)-3-methoxy-N-(2-methoxybenzyl)benzamide]
≥ 50 | < 30 | COc1cc(C(=O)NC2CC(C)(C)NC(C)(C)C2)ccc1Nc1ncc(Cl)c(-c2cnn(C(C)C)c2)n1 [Compound 166, 4-((5-chloro-4-(1-isopropyl-1H-pyrazol-4-yl)pyrimidin-2-yl)amino)-3-methoxy-N-(2,2,6,6-tetramethylpiperidin-4-yl)benzamide]
≥ 50 | < 30 | COc1cc(C(=O)NN2C(C)CCCC2C)ccc1Nc1ncc(Cl)c(-c2cnn(C(C)C)c2)n1 (stereo not drawn) [Compound 167, 4-((5-chloro-4-(1-isopropyl-1H-pyrazol-4-yl)pyrimidin-2-yl)amino)-N-(2,6-dimethylpiperidin-1-yl)-3-methoxybenzamide]
≥ 50 | < 50 | COc1cc(C(=O)NCc2ccc(Cl)nc2)ccc1Nc1ncc(Cl)c(-c2cnn(C(C)C)c2)n1 [Compound 168, 4-((5-chloro-4-(1-isopropyl-1H-pyrazol-4-yl)pyrimidin-2-yl)amino)-N-((6-chloropyridin-3-yl)methyl)-3-methoxybenzamide]
≥ 50 | < 50 | CCOC(=O)CCNC(=O)c1ccc(Nc2ncc(Cl)c(-c3cnn(C(C)C)c3)n2)c(OC)c1 [Compound 176, ethyl 3-(4-((5-chloro-4-(1-isopropyl-1H-pyrazol-4-yl)pyrimidin-2-yl)amino)-3-methoxybenzamido)propanoate]
≥ 50 | < 50 | COc1cc(C(=O)NC(C)c2ccccc2)ccc1Nc1ncc(Cl)c(-c2cnn(C(C)C)c2)n1 (stereo not drawn) [Compound 179, 4-((5-chloro-4-(1-isopropyl-1H-pyrazol-4-yl)pyrimidin-2-yl)amino)-3-methoxy-N-(1-phenylethyl)benzamide]
≥ 50 | < 50 | CCC(NC(=O)c1ccc(Nc2ncc(Cl)c(-c3cnn(C(C)C)c3)n2)c(OC)c1)c1ccccc1 (stereo not drawn) [Compound 182, 4-((5-chloro-4-(1-isopropyl-1H-pyrazol-4-yl)pyrimidin-2-yl)amino)-3-methoxy-N-(1-phenylpropyl)benzamide]
≥ 50 | < 30 | COc1cc(C(=O)NCc2ccc(N)cc2)ccc1Nc1ncc(Cl)c(-c2cnn(C(C)C)c2)n1 [Compound 183, N-(4-aminobenzyl)-4-((5-chloro-4-(1-isopropyl-1H-pyrazol-4-yl)pyrimidin-2-yl)amino)-3-methoxybenzamide]
≥ 50 | < 50 | COc1cc(C(=O)NCc2ccc(S(N)(=O)=O)cc2)ccc1Nc1ncc(Cl)c(-c2cnn(C(C)C)c2)n1 [Compound 189, 4-((5-chloro-4-(1-isopropyl-1H-pyrazol-4-yl)pyrimidin-2-yl)amino)-3-methoxy-N-(4-sulfamoylbenzyl)benzamide]
≥ 50 | < 50 | COc1cc(C(=O)Nc2cccc(NS(C)(=O)=O)c2)ccc1Nc1ncc(Cl)c(-c2cnn(C(C)C)c2)n1 [Compound 190, 4-((5-chloro-4-(1-isopropyl-1H-pyrazol-4-yl)pyrimidin-2-yl)amino)-3-methoxy-N-(3-(methylsulfonamido)phenyl)benzamide]
≥ 50 | < 30 | COc1cc(C(=O)Nc2cccc(S(N)(=O)=O)c2)ccc1Nc1ncc(Cl)c(-c2cnn(C(C)C)c2)n1 [Compound 191, 4-((5-chloro-4-(1-isopropyl-1H-pyrazol-4-yl)pyrimidin-2-yl)amino)-3-methoxy-N-(3-sulfamoylphenyl)benzamide]
≥ 50 | < 30 | COc1cc(C(=O)NCCS(C)(=O)=O)ccc1Nc1ncc(Cl)c(-c2cnn(C(C)C)c2)n1 [Compound 192, 4-((5-chloro-4-(1-isopropyl-1H-pyrazol-4-yl)pyrimidin-2-yl)amino)-3-methoxy-N-(2-(methylsulfonyl)ethyl)benzamide]
≥ 50 | < 50 | COc1cc(C(=O)NCCCn2ccnc2)ccc1Nc1ncc(Cl)c(-c2cnn(C(C)C)c2)n1 [Compound 197, N-(3-(1H-imidazol-1-yl)propyl)-4-((5-chloro-4-(1-isopropyl-1H-pyrazol-4-yl)pyrimidin-2-yl)amino)-3-methoxybenzamide]
≥ 50 | < 50 | COc1cc(C(=O)NCC(OC)OC)ccc1Nc1ncc(Cl)c(-c2cnn(C(C)C)c2)n1 [Compound 198, 4-((5-chloro-4-(1-isopropyl-1H-pyrazol-4-yl)pyrimidin-2-yl)amino)-N-(2,2-dimethoxyethyl)-3-methoxybenzamide]
≥ 50 | < 50 | COC(=O)[C@@H]1CCCN1C(=O)c1ccc(Nc2ncc(Cl)c(-c3cnn(C(C)C)c3)n2)c(OC)c1 [Compound 200, methyl (4-((5-chloro-4-(1-isopropyl-1H-pyrazol-4-yl)pyrimidin-2-yl)amino)-3-methoxybenzoyl)-L-prolinate]
≥ 50 | < 50 | CCN(C)C(=O)c1ccc(Nc2ncc(Cl)c(-c3cnn(C(C)C)c3)n2)c(OC)c1 [Compound 202, 4-((5-chloro-4-(1-isopropyl-1H-pyrazol-4-yl)pyrimidin-2-yl)amino)-N-ethyl-3-methoxy-N-methylbenzamide]
≥ 50 | < 50 | COc1ccc(CNC(=O)c2ccc(Nc3ncc(Cl)c(-c4cnn(C(C)C)c4)n3)c(OC)c2)cc1 [Compound 203, 4-((5-chloro-4-(1-isopropyl-1H-pyrazol-4-yl)pyrimidin-2-yl)amino)-3-methoxy-N-(4-methoxybenzyl)benzamide]
≥ 50 | < 50 | COc1cc(C(=O)Nc2cc(C)c(OC)c(C)c2)ccc1Nc1ncc(Cl)c(-c2cnn(C(C)C)c2)n1 [Compound 204, 4-((5-chloro-4-(1-isopropyl-1H-pyrazol-4-yl)pyrimidin-2-yl)amino)-3-methoxy-N-(4-methoxy-3,5-dimethylphenyl)benzamide]
≥ 50 | < 50 | COc1cc(C(=O)NCc2cccc(N)c2)ccc1Nc1ncc(Cl)c(-c2cnn(C(C)C)c2)n1 [Compound 205, N-(3-aminobenzyl)-4-((5-chloro-4-(1-isopropyl-1H-pyrazol-4-yl)pyrimidin-2-yl)amino)-3-methoxybenzamide]
< 50 | < 10 | CCN(C)C1CCN(C(=O)c2ccc(Nc3ncc(Cl)c(-c4cnn(C(C)C)c4)n3)c(OC)c2)CC1 [Compound 210, (4-((5-chloro-4-(1-isopropyl-1H-pyrazol-4-yl)pyrimidin-2-yl)amino)-3-methoxyphenyl)(4-(ethyl(methyl)amino)piperidin-1-yl)methanone]
